Laboratory results published in patent US20240246967A1, “AXL COMPOUNDS” (ARCUS BIOSCIENCES, INC., priority 2021, published 2024).

How the values were obtained:
human MER = biological target: T1, human MER (Homo sapiens, UniProt Q12866); experiment: HTRF KinEASE-TK biochemical potency assay, MER; conditions: 1 nM MER, 700 μM ATP, 800 nM TK Substrate-biotin
T1 construct: purchased Invitrogen
T1 sequence (Q12866 21-999): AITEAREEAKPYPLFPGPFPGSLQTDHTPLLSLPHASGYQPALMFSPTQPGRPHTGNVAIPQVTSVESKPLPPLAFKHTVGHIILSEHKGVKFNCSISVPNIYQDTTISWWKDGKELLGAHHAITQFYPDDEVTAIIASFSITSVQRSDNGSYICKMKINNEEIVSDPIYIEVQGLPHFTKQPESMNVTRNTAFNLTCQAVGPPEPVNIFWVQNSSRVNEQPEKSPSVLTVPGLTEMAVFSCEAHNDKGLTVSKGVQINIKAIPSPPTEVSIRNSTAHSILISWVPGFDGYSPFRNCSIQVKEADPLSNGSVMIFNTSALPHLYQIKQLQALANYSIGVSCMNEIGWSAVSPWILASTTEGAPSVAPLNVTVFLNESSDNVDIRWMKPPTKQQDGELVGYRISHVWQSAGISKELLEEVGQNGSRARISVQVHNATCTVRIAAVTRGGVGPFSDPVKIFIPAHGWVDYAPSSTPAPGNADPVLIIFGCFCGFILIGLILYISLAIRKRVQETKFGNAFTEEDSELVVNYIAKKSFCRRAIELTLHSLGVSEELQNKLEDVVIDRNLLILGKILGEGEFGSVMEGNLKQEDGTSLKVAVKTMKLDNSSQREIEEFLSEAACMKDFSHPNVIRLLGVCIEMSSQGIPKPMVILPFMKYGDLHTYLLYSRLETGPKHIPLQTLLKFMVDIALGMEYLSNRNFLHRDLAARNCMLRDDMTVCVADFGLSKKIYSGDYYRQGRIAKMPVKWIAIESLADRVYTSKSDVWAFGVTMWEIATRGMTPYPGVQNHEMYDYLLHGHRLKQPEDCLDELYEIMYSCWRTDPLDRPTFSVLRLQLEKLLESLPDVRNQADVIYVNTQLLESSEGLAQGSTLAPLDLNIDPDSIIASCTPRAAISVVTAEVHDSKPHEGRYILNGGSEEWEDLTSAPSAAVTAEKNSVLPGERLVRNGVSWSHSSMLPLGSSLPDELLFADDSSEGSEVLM
Summary of the method: (§1)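 Final conditions: 5 nM AXL, 1 nM TYRO3 or MER, 50 mM HEPES pH 7.4, 10 mM MgCl2, 0.01% BSA, 1 mM DTT, 700 μM ATP. Reaction ran 2 h at RT after 1 h preincubation with compound; HTRF signal read at 665/620 nm.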

human TYRO3 = biological target: T2, human TYRO3 (Homo sapiens, UniProt Q06418); experiment: HTRF KinEASE-TK biochemical potency assay, TYRO3; conditions: 1 nM TYRO3, 700 μM ATP, 800 nM TK Substrate-biotin
T2 construct: purchased Invitrogen
T2 sequence (Q06418 41-890): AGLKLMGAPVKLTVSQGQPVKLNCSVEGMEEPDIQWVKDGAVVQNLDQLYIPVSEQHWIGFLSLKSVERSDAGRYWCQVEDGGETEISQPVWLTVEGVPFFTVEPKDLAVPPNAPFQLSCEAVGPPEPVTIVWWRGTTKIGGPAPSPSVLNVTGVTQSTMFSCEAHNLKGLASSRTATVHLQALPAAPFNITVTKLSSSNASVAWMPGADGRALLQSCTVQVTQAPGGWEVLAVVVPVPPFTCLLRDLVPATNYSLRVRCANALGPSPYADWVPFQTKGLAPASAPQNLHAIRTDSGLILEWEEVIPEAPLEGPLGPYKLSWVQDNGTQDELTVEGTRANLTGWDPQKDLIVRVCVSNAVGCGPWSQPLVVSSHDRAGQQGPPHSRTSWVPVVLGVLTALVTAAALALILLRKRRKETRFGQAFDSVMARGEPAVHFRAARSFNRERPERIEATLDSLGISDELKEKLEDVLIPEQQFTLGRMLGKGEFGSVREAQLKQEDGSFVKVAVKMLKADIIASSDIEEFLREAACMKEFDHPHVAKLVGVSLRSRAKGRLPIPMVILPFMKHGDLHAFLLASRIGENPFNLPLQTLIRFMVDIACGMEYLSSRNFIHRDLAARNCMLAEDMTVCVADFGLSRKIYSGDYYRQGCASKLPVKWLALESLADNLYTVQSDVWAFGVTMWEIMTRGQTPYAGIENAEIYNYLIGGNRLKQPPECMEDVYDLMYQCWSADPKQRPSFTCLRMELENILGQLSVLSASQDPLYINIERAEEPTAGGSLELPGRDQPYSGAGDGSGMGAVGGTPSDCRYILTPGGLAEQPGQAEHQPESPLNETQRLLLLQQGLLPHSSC
Summary of the method: as §1

| Structure (SMILES) | IC50 (human MER) [nM] | IC50 (human TYRO3) [nM] |
| --- | --- | --- |
| c1cc2c(cc1-c1cnc3[nH]nc(-c4ccc(N5C[C@H]6C[C@@H]5CO6)cc4)c3c1)CC[C@@H](N1C3COCC1C3)CC2 [Example 126, (1R,4R)-5-(4-{5-[(7S)-7-{3-oxa-6-azabicyclo[3.1.1]heptan-6-yl}-6,7,8,9-tetrahydro-5H-benzo[7]annulen-2-yl]-2H-pyrazolo[3,4-b]pyridin-3-yl}phenyl)-2-oxa-5-azabicyclo[2.2.1]heptane] | > 1000 | > 1000 |
| CS(=O)(=O)c1ccc(-c2n[nH]c3ncc(-c4ccc5c(c4)CCN(C4CCCC4)CC5)cc23)cc1F [Example 32, 3-Cyclopentyl-7-(3-(3-fluoro-4-(methylsulfonyl)phenyl)-1H-pyrazolo[3,4-b]pyridin-5-yl)-2,3,4,5-tetrahydro-1H-benzo[d]azepine] | 100 to 1000 | 100 to 1000 |
| CC(C)(O)c1ccc(-c2n[nH]c3ncc(-c4ccc5c(c4)CCN(C4CCCC4)CC5)cc23)cn1 [Example 10, 2-{5-[5-(3-Cyclopentyl-2,3,4,5-tetrahydro-1H-3-benzazepin-7-yl)-1H-pyrazolo[3,4-b]pyridin-3-yl]pyridin-2-yl}propan-2-ol] | 100 to 1000 | 100 to 1000 |
| Cc1cc(-c2n[nH]c3ncc(-c4ccc5c(c4)CCC(N4CCCC4)CC5)cc23)ccc1C(=O)N1CCNCC1 (stereo not shown) [Example 47, 1-(2-Methyl-4-{5-[7-(pyrrolidin-1-yl)-6,7,8,9-tetrahydro-5H-benzo[7]annulen-2-yl]-1H-pyrazolo[3,4-b]pyridin-3-yl}benzoyl)piperazine] | 100 to 1000 | < 100 |
| FC1CN(c2ccc(-c3c[nH]c4ncc(-c5ccc6c(c5)CC[C@@H](N5C7COCC5C7)CC6)cc34)cc2)C1 [Example 127, 6-[(7S)-2-{3-[4-(3-fluoroazetidin-1-yl)phenyl]-1H-pyrrolo[2,3-b]pyridin-5-yl}-6,7,8,9-tetrahydro-5H-benzo[7]annulen-7-yl]-3-oxa-6-azabicyclo[3.1.1]heptane] | > 1000 | 100 to 1000 |
| O=C1OCCN1c1ccc(-c2n[nH]c3ncc(-c4ccc5c(c4)CC[C@@H](N4C6COCC4C6)CC5)cc23)cc1 [Example 121, 3-(4-{5-[(7S)-7-{3-oxa-6-azabicyclo[3.1.1]heptan-6-yl}-6,7,8,9-tetrahydro-5H-benzo[7]annulen-2-yl]-2H-pyrazolo[3,4-b]pyridin-3-yl}phenyl)-1,3-oxazolidin-2-one] | > 1000 | 100 to 1000 |
| C[C@@H]1CCCN1C1(C)CCc2ccc(-c3cnc4[nH]cc(-c5ccc(S(=O)(=O)C6CC6)cc5)c4c3)cc2CC1 (stereo partly drawn) [Example 105, (2R)-1-(2-{3-[4-(Cyclopropanesulfonyl)phenyl]-1H-pyrrolo[2,3-b]pyridin-5-yl}-7-methyl-6,7,8,9-tetrahydro-5H-benzo[7]annulen-7-yl)-2-methylpyrrolidine] | > 1000 | 100 to 1000 |
| O=S(=O)(c1ccc(-c2n[nH]c3ncc(-c4ccc5c(c4)CCN(CC4CCOC4)CC5)cc23)cc1)C1CC1 (stereo not shown) [Example 27, 7-{3-[4-(Cyclopropanesulfonyl)phenyl]-1H-pyrazolo[3,4-b]pyridin-5-yl}-3-[(oxolan-3-yl)methyl]-2,3,4,5-tetrahydro-1H-3-benzazepine] | > 1000 | > 1000 |
| C[C@@H]1CCCN1C1CCc2ccc(-c3cnc4[nH]nc(-c5ccc(S(=O)(=O)C6CC6)cc5)c4c3)cc2C(C)(C)C1 (stereo partly drawn) [Example 109, (2R)-1-(2-{3-[4-(Cyclopropanesulfonyl)phenyl]-1H-pyrazolo[3,4-b]pyridin-5-yl}-9,9-dimethyl-6,7,8,9-tetrahydro-5H-benzo[7]annulen-7-yl)-2-methylpyrrolidine] | > 1000 | 100 to 1000 |
| CC(C)(O)c1ccc(-c2n[nH]c3ncc(-c4ccc5c(c4)CCC4(CCCN4)CC5)cc23)cc1Cl (stereo not shown) [Example 96, 2-[2-Chloro-4-(5-{5,6,8,9-tetrahydrospiro[benzo[7]annulene-7,2′-pyrrolidin]-3-yl}-1H-pyrazolo[3,4-b]pyridin-3-yl)phenyl]propan-2-ol] | > 1000 | 100 to 1000 |
| C[C@@H]1CCCN1C1(C)CCc2ccc(-c3cnc4[nH]nc(-c5ccc(S(=O)(=O)C(F)(F)F)cc5)c4c3)cc2CC1 (stereo partly drawn) [Example 8, (2R)-2-Methyl-1-{7-methyl-2-[3-(4-trifluoromethanesulfonylphenyl)-1H-pyrazolo[3,4-b]pyridin-5-yl]-6,7,8,9-tetrahydro-5H-benzo[7]annulen-7-yl}pyrrolidine] | > 1000 | > 1000 |
| COCCNCc1ccc(-c2n[nH]c3ncc(-c4ccc5c(c4)CCC(C)(N4CCC[C@H]4C)CC5)cc23)cc1 (stereo partly drawn) [Example 108, (2-Methoxyethyl)({[4-(5-{7-methyl-7-[(2R)-2-methylpyrrolidin-1-yl]-6,7,8,9-tetrahydro-5H-benzo[7]annulen-2-yl}-1H-pyrazolo[3,4-b]pyridin-3-yl)phenyl]methyl})amine] | > 1000 | 100 to 1000 |
| CCC1(N2CCC[C@H]2C)CCc2ccc(-c3cnc4[nH]nc(-c5ccc(S(=O)(=O)C6CC6)cc5)c4c3)cc2CC1 (stereo partly drawn) [Example 6, (2R)-1-(2-{3-[4-(Cyclopropanesulfonyl)phenyl]-1H-pyrazolo[3,4-b]pyridin-5-yl}-7-ethyl-6,7,8,9-tetrahydro-5H-benzo[7]annulen-7-yl)-2-methylpyrrolidine] | > 1000 | 100 to 1000 |
| CC(C)(O)c1ccc(-c2n[nH]c3ncc(-c4ccc5c(c4)CCC(N4CCCC4)CC5)cc23)cn1 (stereo not shown) [Example 9, 2-(5-{5-[7-(Pyrrolidin-1-yl)-6,7,8,9-tetrahydro-5H-benzo[7]annulen-2-yl]-1H-pyrazolo[3,4-b]pyridin-3-yl}pyridin-2-yl)propan-2-ol] | 100 to 1000 | < 100 |
| CN(C)C(=O)c1ccc(-c2n[nH]c3ncc(-c4ccc5c(c4)CC[C@@H](N4C6COCC4C6)CC5)cc23)cc1 [Example 125, N,N-Dimethyl-4-{5-[(7S)-7-{3-oxa-6-azabicyclo[3.1.1]heptan-6-yl}-6,7,8,9-tetrahydro-5H-benzo[7]annulen-2-yl]-2H-pyrazolo[3,4-b]pyridin-3-yl}benzamide] | 100 to 1000 | 100 to 1000 |
| CCS(=O)(=O)c1ccc(-c2n[nH]c3ncc(-c4ccc5c(c4)CC[C@@H](N4CCCC4)CC5)cc23)cc1 [Example 41, (S)-3-(4-(Ethylsulfonyl)phenyl)-5-(7-(pyrrolidin-1-yl)-6,7,8,9-tetrahydro-5H-benzo[7]annulen-2-yl)-1H-pyrazolo[3,4-b]pyridine] | 100 to 1000 | < 100 |
| CC(C)(O)c1ccc(-c2n[nH]c3ncc(-c4cc5c(cn4)CCC(N4CCCC4)CC5)cc23)cc1Cl (stereo not shown) [Example 59, 2-(2-Chloro-4-{5-[7-(pyrrolidin-1-yl)-5H,6H,7H,8H,9H-cyclohepta[c]pyridin-3-yl]-1H-pyrazolo[3,4-b]pyridin-3-yl}phenyl)propan-2-ol] | 100 to 1000 | < 100 |
